Columns and labels:
phospho-ERK = assay: Western blot, ERK phosphorylation in SRB1 and NHEK cells; type: cell-based, human; details: 0.6 μM (NHEK) or 1.2 μM (SRB1)
Excerpt: Figure 2. […] DOI: http://dx.doi.org/10.7554/eLife.00969.010 [drawing 5]

HaCaT cells = assay: UV-induced apoptosis, FACS Annexin V+, TMRE-low; type: cell-based, human; details: 0.05 μM
A375 melanoma cell line = details: ref Greger et al., 2012; cited from earlier work
[1] = test system: E1A and HRAS^G12V-transformed wild-type (WT) MEFs; assay: Soft agar colony formation; type: cell-based, mouse; details: 0.05 μM
[2] = test system: E1A and HRAS^G12V-transformed Craf−/− MEFs; assay: Soft agar colony formation; type: cell-based, mouse; details: 0.05 μM
[3] = target: T1, MKK4 (amino acids 33-end) (Homo sapiens, UniProt P45985); assay: In vitro kinase assay (Reaction Biology); type: biochemical; details: up to 1 μM
T1 construct: amino acids 33-end MKK4 (JNK1 substrate, ATP 0.1 μM); purchased Reaction Biology
T1 sequence (P45985 33-399 limits assumed): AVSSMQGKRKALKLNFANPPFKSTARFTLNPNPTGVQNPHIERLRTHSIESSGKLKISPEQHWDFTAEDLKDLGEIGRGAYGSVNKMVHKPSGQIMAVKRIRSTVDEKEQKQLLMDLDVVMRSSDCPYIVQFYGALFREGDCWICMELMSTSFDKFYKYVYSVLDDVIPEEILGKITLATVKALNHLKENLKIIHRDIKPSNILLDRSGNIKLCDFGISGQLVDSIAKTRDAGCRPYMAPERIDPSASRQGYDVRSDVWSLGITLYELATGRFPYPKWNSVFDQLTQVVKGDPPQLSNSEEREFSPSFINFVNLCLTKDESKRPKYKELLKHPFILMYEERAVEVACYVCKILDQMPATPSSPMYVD

phospho-JNK = assay: Western blot, UV-induced phospho-JNK in cSCC and HaCaT cell lines; type: cell-based, human; details: 0.05 μM, HaCaT and SRB1 cells
human full-length ZAK = target: T2, human full-length ZAK (Homo sapiens, UniProt Q9NYL2); assay: In vitro kinase assay (Reaction Biology); type: biochemical
T2 construct: In vitro kinase assays were performed using human full-length ZAK; purchased Reaction Biology

full length MAP4K5 = target: T3, full length MAP4K5 (Homo sapiens, UniProt Q9Y4K4); assay: In vitro kinase assay (Reaction Biology); type: biochemical; details: up to 1 μM
T3 construct: and full length MAP4K5 (MBP substrate, ATP 10 μM) (Reaction Biology); purchased Reaction Biology
T3 sequence (Q9Y4K4 whole entry): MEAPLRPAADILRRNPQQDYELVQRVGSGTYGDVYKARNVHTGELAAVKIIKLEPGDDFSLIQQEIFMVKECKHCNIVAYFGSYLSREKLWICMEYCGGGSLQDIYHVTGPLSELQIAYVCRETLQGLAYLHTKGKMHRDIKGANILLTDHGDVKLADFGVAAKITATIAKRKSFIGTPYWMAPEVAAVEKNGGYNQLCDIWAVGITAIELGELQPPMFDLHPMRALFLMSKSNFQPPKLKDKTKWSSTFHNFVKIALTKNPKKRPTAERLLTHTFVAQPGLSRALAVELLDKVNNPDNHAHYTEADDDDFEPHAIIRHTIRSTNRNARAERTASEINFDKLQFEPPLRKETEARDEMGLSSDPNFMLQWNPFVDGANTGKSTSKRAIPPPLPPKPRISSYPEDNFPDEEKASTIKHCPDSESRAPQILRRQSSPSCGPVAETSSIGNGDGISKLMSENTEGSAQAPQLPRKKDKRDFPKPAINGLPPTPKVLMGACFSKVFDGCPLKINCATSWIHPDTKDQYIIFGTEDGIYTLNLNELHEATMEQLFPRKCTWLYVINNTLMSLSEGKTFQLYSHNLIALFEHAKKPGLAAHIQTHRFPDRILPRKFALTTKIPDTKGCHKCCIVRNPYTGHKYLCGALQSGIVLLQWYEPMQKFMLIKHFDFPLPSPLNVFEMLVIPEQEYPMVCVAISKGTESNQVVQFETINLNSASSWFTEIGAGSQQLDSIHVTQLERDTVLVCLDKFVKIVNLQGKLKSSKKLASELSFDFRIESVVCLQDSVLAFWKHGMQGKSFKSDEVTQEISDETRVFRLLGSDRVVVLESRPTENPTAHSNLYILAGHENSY

cSCC in treated patients = details: 150 mg PO BID, ref Falchook et al., 2012, Hauschild et al., Long et al.; cited from earlier work
[4] = 150 mg PO BID in humans, ref Falchook et al., 2012; cited from earlier work
[5] = test system: A375 and WM35 BRAF^V600E melanoma cell lines; assay: Growth of BRAF^V600E melanoma cell lines; type: cell-based, human; details: bioequivalent doses: dabrafenib 0.05 μM, PLX4720 1.0 μM
SRB1 cells = assay: UV-induced apoptosis, FACS Annexin V+, TMRE-low; type: cell-based, human; details: 0.05 μM
[6] = Serum concentration in humans; type: in vivo, human; details: 150 mg PO BID vs vemurafenib 960 mg PO BID

Cn1cnc2c(F)c(Nc3ccc(Br)cc3Cl)c(C(=O)NOCCO)cc21 [AZD6244]
ERK phosphorylation and activation (phospho-ERK): effectively abrogated

CC(C)(C)c1nc(-c2cccc(NS(=O)(=O)c3c(F)cccc3F)c2F)c(-c2ccnc(N)n2)s1 [dabrafenib]
UV-induced apoptosis (HaCaT cells): fails to suppress | GI50 (A375 melanoma cell line): < 10 nM | colony formation [1]: significant growth advantage | colony formation [2]: fails to confer a significant growth advantage | inhibition of MKK4 [3]: no significant inhibition | UV-induced phospho-JNK induction (phospho-JNK): fails to suppress | IC50 (human full-length ZAK; MBP substrate, ATP 2.5 μM, read-out: biochemical IC50): 28.9 ± 2.23 nM | retained activity of ZAK kinase (human full-length ZAK; at 0.01 μM): over 64% | inhibition of MAP4K5 (full length MAP4K5): no significant inhibition | overall aggregated cSCC rate (cSCC in treated patients): 6.1% | peak serum concentrations [4]: 1.55 µM | growth of A375 and WM35 cells [5]: suppress the growth | UV-induced apoptosis (SRB1 cells): fails to suppress | peak serum concentration, fold lower than mean sustained serum levels of vemurafenib [6]: over 50 fold

— paper PMC3814616, “BRAF inhibitors suppress apoptosis through off-target inhibition of JNK signaling” (eLife, 2013)
